The results in this text go back to patent publication US12581252B2, “Substituted pyrrolo[3,4-b]pyridines as PI3K-α inhibitors” (Relay Therapeutics, Inc., priority 2020, dated 2026).

Structures are written as SMILES.

This experiment deals with H1047R PIK3CA enzyme (Homo sapiens, UniProt P42336, H1047R). As to the kind of experiment: ADP-Glo Biochemical PIK3CA Kinase Assay. In general terms: In ADP-Glo the light output rises with the ADP produced.
Chain of H1047R PIK3CA enzyme (P42336 whole entry H1047R): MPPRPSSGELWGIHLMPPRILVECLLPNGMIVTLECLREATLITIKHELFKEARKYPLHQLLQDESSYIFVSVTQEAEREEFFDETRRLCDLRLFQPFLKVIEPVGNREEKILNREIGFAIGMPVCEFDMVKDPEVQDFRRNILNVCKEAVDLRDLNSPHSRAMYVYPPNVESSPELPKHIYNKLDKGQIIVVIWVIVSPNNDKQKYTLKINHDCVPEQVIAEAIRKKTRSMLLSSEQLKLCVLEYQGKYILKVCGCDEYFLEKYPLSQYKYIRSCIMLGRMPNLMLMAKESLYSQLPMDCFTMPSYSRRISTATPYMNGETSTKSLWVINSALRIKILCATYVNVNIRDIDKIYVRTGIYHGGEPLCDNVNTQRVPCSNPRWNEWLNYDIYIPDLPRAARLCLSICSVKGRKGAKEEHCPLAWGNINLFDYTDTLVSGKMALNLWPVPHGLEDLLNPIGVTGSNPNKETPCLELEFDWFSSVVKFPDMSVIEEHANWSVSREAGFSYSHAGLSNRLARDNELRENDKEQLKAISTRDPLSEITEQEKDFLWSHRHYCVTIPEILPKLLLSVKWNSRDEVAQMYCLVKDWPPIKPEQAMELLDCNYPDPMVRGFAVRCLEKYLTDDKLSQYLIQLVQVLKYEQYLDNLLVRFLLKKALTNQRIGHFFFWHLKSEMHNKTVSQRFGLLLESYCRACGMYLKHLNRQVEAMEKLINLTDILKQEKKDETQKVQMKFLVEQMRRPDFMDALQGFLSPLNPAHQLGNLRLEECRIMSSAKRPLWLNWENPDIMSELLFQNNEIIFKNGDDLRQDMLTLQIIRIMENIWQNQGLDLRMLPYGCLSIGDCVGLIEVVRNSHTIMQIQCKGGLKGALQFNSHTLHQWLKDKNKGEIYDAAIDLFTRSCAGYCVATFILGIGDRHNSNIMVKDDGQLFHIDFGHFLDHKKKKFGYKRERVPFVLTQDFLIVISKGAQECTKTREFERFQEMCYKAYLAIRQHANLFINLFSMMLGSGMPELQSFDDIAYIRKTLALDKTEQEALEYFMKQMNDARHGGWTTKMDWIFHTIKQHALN
Chain of H1047R PIK3CA enzyme (P27986 whole entry partner): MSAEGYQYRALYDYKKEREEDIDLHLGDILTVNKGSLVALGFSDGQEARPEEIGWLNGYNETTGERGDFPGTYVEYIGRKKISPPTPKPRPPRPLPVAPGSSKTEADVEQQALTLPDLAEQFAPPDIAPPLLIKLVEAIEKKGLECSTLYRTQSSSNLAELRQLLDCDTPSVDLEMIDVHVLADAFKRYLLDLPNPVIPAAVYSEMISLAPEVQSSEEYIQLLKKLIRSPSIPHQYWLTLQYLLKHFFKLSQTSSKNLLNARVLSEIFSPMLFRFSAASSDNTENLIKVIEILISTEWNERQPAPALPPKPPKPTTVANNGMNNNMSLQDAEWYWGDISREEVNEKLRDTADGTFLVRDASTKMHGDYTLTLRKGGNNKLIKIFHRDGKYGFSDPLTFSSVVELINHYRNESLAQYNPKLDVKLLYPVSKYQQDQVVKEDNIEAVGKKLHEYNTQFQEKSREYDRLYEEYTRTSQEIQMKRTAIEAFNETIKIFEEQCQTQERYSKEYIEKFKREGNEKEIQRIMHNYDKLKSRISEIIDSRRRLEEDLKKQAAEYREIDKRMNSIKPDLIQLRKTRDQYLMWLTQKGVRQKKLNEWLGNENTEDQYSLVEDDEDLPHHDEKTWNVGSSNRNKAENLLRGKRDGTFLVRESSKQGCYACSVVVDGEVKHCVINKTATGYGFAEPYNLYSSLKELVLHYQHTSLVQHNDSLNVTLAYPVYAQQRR
Compound `Cc1ccccc1C1NC(=O)c2cccc(NC(=O)c3nc(C)n4ccc(Cl)cc34)c21` (stereo not shown) [Compound I-277, 7-Chloro-N-(1-oxo-3-(o-tolyl)isoindolin-4-yl)-3-methylimidazo[1,5-a]pyridine-1-carboxamide] had a half-maximal inhibitory concentration (IC50) of 10000 to 100000 nM.

For `Cc1ccccc1C1NC(=O)c2c(C(=O)O)ccc(NC(=O)c3nsc4ccccc34)c21` (stereo not shown) [Compound I-278], the IC50 fell in the range of 500 to 1000 nM.

In the case of `Cc1ccccc1C1NC(=O)c2c(Br)ccc(NC(=O)c3cc(F)cc(C(F)(F)F)c3)c21` (stereo not shown) [Compound I-279], the half-maximal inhibitory concentration (IC50) lay in the range of 100 to 500 nM.

For `CC(O)c1cc(NC(=O)c2cc(F)cc(C(F)(F)F)c2)c2c(n1)C(=O)NC2c1cc(F)ccc1Cl` (stereo not shown) [Compound I-280], the concentration for half-maximal inhibition (IC50) was 100 to 500 nM.

With `Cc1ccc(F)cc1C1NC(=O)c2cccc(NC(=O)c3cc(F)cc(C(F)(F)F)c3)c21` (stereo not shown) [Compound I-281], the half-maximal inhibitory concentration (IC50) lay within 100 to 500 nM.

Regarding `Cc1ccccc1C1NC(=O)c2nccc(NC(=O)N3CCc4cccnc43)c21` (stereo not shown) [Compound I-282], the IC50 fell in the range of 1000 to 10000 nM.

With `O=C(Nc1c(F)ccc2c1C(c1cc(F)ccc1C(F)F)NC2=O)c1cc(F)cc(C(F)(F)F)c1` (stereo not shown) [Compound I-283, N-(3-(2-(Difluoromethyl)-5-fluorophenyl)-5-fluoro-1-oxoisoindolin-4-yl)-3-fluoro-5-(trifluoromethyl)benzamide], the IC50 lay in the range of 500 to 1000 nM.

Take `O=C(Nc1cc(NC2CC(F)(F)C2)nc2c1C(c1cc(F)ccc1Cl)NC2=O)c1cc(F)cc(C(F)(F)F)c1` (stereo not shown) [Compound I-284]: the IC50 is at most 100 nM.

Regarding `Cc1ccccc1C1NC(=O)c2cccc(NC(=O)c3nc(C)c4ccc(Cl)cn34)c21` (stereo not shown) [Compound I-285], the IC50 is 10000 to 100000 nM.

The compound `O=C(Nc1cc(N2CC(F)(F)C2)nc2c1C(c1cc(F)ccc1Cl)NC2=O)c1cc(F)cc(C(F)(F)F)c1` (stereo not shown) [Compound I-286, N-[5-(2-Chloro-5-fluorophenyl)-2-(3,3-difluoroazetidin-1-yl)-7-oxo-5H,6H,7H-pyrrolo[3,4-b]pyridin-4-yl]-3-fluoro-5-(trifluoromethyl)benzamide] displayed an IC50 of at most 100 nM.

Compound `O=C(Nc1cnc(-c2cn[nH]c2)c2c1C(c1cc(F)ccc1Cl)NC2=O)c1cc(F)cc(C(F)(F)F)c1` (stereo not shown) [Compound I-287] yielded a 50% inhibitory concentration (IC50) of 100 to 500 nM.

Compound `COCCNc1cc(NC(=O)c2cc(F)cc(C(F)(F)F)c2)c2c(n1)C(=O)NC2c1cc(F)ccc1Cl` (stereo not shown) [Compound I-288] showed an IC50 of 100 to 500 nM.

In the case of `CC(C)(O)c1cc(NC(=O)c2coc3c(F)cc(F)cc23)c2c(c1)C(=O)NC2c1cc(F)ccc1C(F)F` (stereo not shown) [Compound I-290], the 50% inhibitory concentration (IC50) is at most 100 nM.

On to `CN1CCN(c2cc(NC(=O)c3cc(F)cc(C(F)(F)F)c3)c3c(n2)C(=O)NC3c2cc(F)ccc2Cl)CC1` (stereo not shown) [Compound I-291], for which the IC50 was 100 to 500 nM.

The compound `Cc1ccccc1C1NC(=O)c2cccc(NC(=O)c3noc4c3CCCCC4)c21` (stereo not shown) [Compound I-292] had an IC50 of 10000 to 100000 nM.

`CC(C)Cc1cc(NC(=O)c2cc(F)cc(C(F)(F)F)c2)c2c(c1)C(=O)NC2c1cc(F)ccc1Cl` (stereo not shown) [Compound I-293] returned an IC50 of at most 100 nM.

`Cc1ccccc1C1NC(=O)Oc2cccc(NC(=O)c3csc4ccccc34)c21` (stereo not shown) [Compound I-294] yielded a 50% inhibitory concentration (IC50) of 100 to 500 nM.

Compound `Cc1ccccc1C1NC(=O)Nc2cccc(OC(=O)c3csc4ccccc34)c21` (stereo not shown) [Compound I-295] registered an IC50 of 1000 to 10000 nM.

`O=C(Nc1ccccc1Cl)Nc1ccnc2c1C(c1ccccc1Cl)NC2=O` (stereo not shown) [Compound I-296] showed a half-maximal inhibitory concentration (IC50) of 1000 to 10000 nM.

In the case of `CS(=O)(=O)CC(O)c1cc(NC(=O)c2cc(F)cc(Cl)c2)c2c(c1)C(=O)NC2c1cc(F)ccc1Cl` (stereo not shown) [Compound I-297], the IC50 lay within 100 to 500 nM.

Turning to `CC(C)(O)c1cc(NC(=O)c2cc(F)cc(Cl)c2)c2c(c1)C(=O)N[C@@H]2c1cc(F)ccc1Cl` [Compound I-299], the half-inhibitory concentration (IC50) was 10000 to 100000 nM.

`CN1CCN(c2cc(NC(=O)c3cc(F)cc(C(F)(F)F)c3)c3c(c2)C(=O)NC3c2cc(F)ccc2Cl)CC1` (stereo not shown) [Compound I-304] yielded an IC50 of at most 100 nM.

Regarding `O=C(Nc1ccnc2c1C(c1cc(F)ccc1Cl)NC2=O)c1cc(F)cc(C(F)(F)F)c1` (stereo not shown) [Compound I-305], the IC50 was in the range of 100 to 500 nM.

The compound `Cc1ccccc1[C@@H]1NC(=O)c2cc(CO)cc(NC(=O)c3nsc4ccccc34)c21` [Compound I-306] gave a half-maximal inhibitory concentration (IC50) of at most 100 nM.

The compound `Cc1ccccc1[C@H]1NC(=O)c2cc(CO)cc(NC(=O)c3nsc4ccccc34)c21` [Compound I-307] registered a half-maximal inhibitory concentration (IC50) of 1000 to 10000 nM.

In turn, `CC(C)(O)c1cc(NC(=O)N2CCc3ccccc32)c2c(c1)C(=O)NC2c1cc(F)ccc1Cl` (stereo not shown) [Compound I-308] registered a concentration for half-maximal inhibition (IC50) of at most 100 nM.

Turning to `O=C1NC(c2cc(F)ccc2Cl)c2c(NC(=O)N3CCc4ccccc43)cc(Br)cc21` (stereo not shown) [Compound I-309], the IC50 is at most 100 nM.

The compound `CS(=O)(=O)Cc1cc(NC(=O)c2cc(F)cc(C(F)(F)F)c2)c2c(c1)C(=O)NC2c1cc(F)ccc1Cl` (stereo not shown) [Compound I-310] returned a half-inhibitory concentration (IC50) of at most 100 nM.

For `CN1CC[C@H](Nc2cc(NC(=O)c3cc(F)cc(C(F)(F)F)c3)c3c(c2)C(=O)NC3c2cc(F)ccc2Cl)C1` (stereo partly shown) [Compound I-311], the IC50 is at most 100 nM.

The compound `CN1CC[C@@H](Nc2cc(NC(=O)c3cc(F)cc(C(F)(F)F)c3)c3c(c2)C(=O)NC3c2cc(F)ccc2Cl)C1` (stereo partly shown) [Compound I-312] gave an IC50 of at most 100 nM.

On to `Cc1ccccc1C1NC(=O)c2c(C#N)ccc(NC(=O)c3cc(F)cc(C(F)(F)F)c3)c21` (stereo not shown) [Compound I-313], for which the concentration for half-maximal inhibition (IC50) was in the range of 100 to 500 nM.

Turning to `COC(=O)c1cc(NC(=O)c2nsc3ccccc23)c2c(c1)C(=O)NC2c1ccccc1C` (stereo not shown) [Compound I-314], the IC50 fell in the range of 500 to 1000 nM.

Turning to `Cc1ccccc1C1NC(=O)c2cc(C3(O)CC3)cc(NC(=O)c3nsc4ccccc34)c21` (stereo not shown) [Compound I-315, N-[6-(1-hydroxycyclopropyl)-3-(2-methylphenyl)-1-oxo-2,3-dihydro-1H-isoindol-4-yl]-1,2-benzothiazole-3-carboxamide], the IC50 was at most 100 nM.

`Cc1ccccc1C1NC(=O)c2cccc(NC(=O)c3cc(F)n4ccccc34)c21` (stereo not shown) [Compound I-316] yielded a 50% inhibitory concentration (IC50) of 500 to 1000 nM.

Compound `COc1cc(C(=O)Nc2cccc3c2C(c2ccccc2C)NC3=O)cc(F)c1F` (stereo not shown) [Compound I-317] gave an IC50 of 500 to 1000 nM.

In turn, `Cc1ccccc1C1NC(=O)c2cccc(NC(=O)c3cc(F)cc(OC(F)(F)F)c3)c21` (stereo not shown) [Compound I-318] returned an IC50 of 500 to 1000 nM.

For the compound `CCCNc1cc(NC(=O)c2cc(F)cc(C(F)(F)F)c2)c2c(n1)C(=O)NC2c1cc(F)ccc1Cl` (stereo not shown) [Compound I-319], the IC50 is at most 100 nM.

Regarding `O=C(Nc1cnc(N2CC(F)(F)C2)c2c1C(c1cc(F)ccc1Cl)NC2=O)c1cc(F)cc(C(F)(F)F)c1` (stereo not shown) [Compound I-320], the IC50 lay within 100 to 500 nM.

As for `O=C(Nc1cc(NCC(F)(F)F)nc2c1C(c1cc(F)ccc1Cl)NC2=O)c1cc(F)cc(C(F)(F)F)c1` (stereo not shown) [Compound I-321], the concentration for half-maximal inhibition (IC50) is at most 100 nM.

For `CC1(O)CN(c2cc(NC(=O)c3cc(F)cc(C(F)(F)F)c3)c3c(n2)C(=O)NC3c2cc(F)ccc2Cl)C1` (stereo not shown) [Compound I-322], the half-inhibitory concentration (IC50) was 100 to 500 nM.

Compound `O=C(Nc1cccc2c(=O)[nH]n(-c3cc(F)ccc3Cl)c12)c1cc(F)cc(C(F)(F)F)c1` [Compound I-323] came in with a concentration for half-maximal inhibition (IC50) of 1000 to 10000 nM.

The compound `COc1cc2c(cn1)N(C(=O)Nc1ccnc3c1C(c1ccccc1C)NC3=O)CC2` (stereo not shown) [Compound I-324] showed an IC50 of 10000 to 100000 nM.

`O=C(Nc1cccc2c1C(c1ccccc1Br)NC2=O)c1cc(F)cc(C(F)(F)F)c1` (stereo not shown) [Compound I-325] gave an IC50 of 100 to 500 nM.

As usually defined, the IC50 is the concentration that gives 50% inhibition.
